Test results from patent US11857618B2 (priority 2020, dated 2024).

Test system: phosphorylation of IRF3 in HeLa cells
Assay type: cell-based

## Nc1nc(=O)c2ncn([C@@H]3O[C@@H]4COP(=O)(O)O[C@H]5[C@@H](O)[C@H](n6cnc7c(N)ncnc76)O[C@@H]5COP(=O)(O)O[C@@H]3[C@@H]4O)c2[nH]1 [cGAMP, 2′,3′-cGAMP (cyclic [G(2′,5′)pA(3′,5′)p])]
  pIRF3 levels (band normalized to actin) as compared to untreated control: up to 3 fold
